Experiments:
Format in all cases: in vivo
[1] = tested on: Amaranthus retroflexus (AMARE); test: Herbicidal post-emergence action, section B (Table B11); conditions: application rate 320 g/ha, visual rating about 3 weeks after treatment vs untreated controls
In short: (§1)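 Under optimum greenhouse conditions, sandy-loam-grown weeds at the one-leaf stage are sprayed with aqueous suspension or emulsion carrying 0.5% additive, 600 liters per hectare. About 3 weeks later, visual percent activity is scored relative to untreated controls.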

[2] = tested on: Zea mays (ZEAMX); test: Pre-emergence effects on crop plants, section D (Table D1); conditions: visual grading after ca. 3 weeks
In short: (§2)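 Pre-emergence soil-surface spray, 320 g/ha or below, 600 l water/ha + 0.5% additive; WP/EC formulations; sandy loam; greenhouse; visual % damage vs untreated at ~3 wk.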

[3] = tested on: Veronica persica (VERPE); test: Herbicidal pre-emergence action, section C (Table C10); conditions: visual grading after ca. 3 weeks; for pest or weed control at 320 g/ha: Veronica persica, pre-emergence, 504 h, read-out: pre-emergence activity against VERPE in %
In short: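 Pre-emergence, sandy loam. WP/EC formulations applied to covering soil surface, aqueous, + 0.5% additive, 600 l water/ha. Greenhouse, optimum growth. Visual % damage vs untreated, ca. 3 wk.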

[4] = tested on: Abutilon theophrasti (ABUTH); test: Herbicidal pre-emergence action, section C (Table C1); conditions: application rate 320 g/ha, visual grading after ca. 3 weeks vs untreated controls; for pest or weed control at 320 g/ha: Abutilon theophrasti, pre-emergence, 504 h, read-out: pre-emergence activity against ABUTH in %
From the text: (§3) Seeds of mono- and dicotyledonous weed plants and crop plants were sown, in plastic or organic planting pots, in sandy loam and covered with soil. The compounds according to the invention, formulated in the form of wettable powders (WP) or as emulsifiable concentrates (EC), were applied to the surface of the covering soil as aqueous suspension or emulsion, with the addition of 0.5% of an additive, at an application rate of 600 l of water/ha (converted). Following treatment, the pots were placed in a greenhouse and kept under optimum growth conditions for the test plants. The visual grading of the damage to the test plants was carried out after ca. 3 weeks in comparison to untreated controls (herbicidal effect in percent (%): 100% effect=plants have died off, 0% effect=as control plants).

[5] = tested on: Setaria viridis (SETVI); test: Herbicidal post-emergence action, section B (Table B8); conditions: application rate 1280 g/ha, visual rating about 3 weeks after treatment vs untreated controls
In short: as §1

[6] = tested on: Lolium rigidum (LOLRI); test: Herbicidal pre-emergence action, section A (Table A5); conditions: visual grading after ca. 3 weeks vs untreated controls
In short: (§4)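 Compounds are applied pre-emergence to the soil covering freshly sown seeds in sandy loam, as WP or EC in water with 0.5% additive at a spray volume of 600 l/ha. Plants grow in the greenhouse, and percent damage is rated visually after roughly 3 weeks relative to untreated controls.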

[7] = tested on: Triticum aestivum (TRZAS); test: Pre-emergence effects on crop plants, section D (Table D2); conditions: application rate 80 g/ha; visual grading after ca. 3 weeks
In short: as §2

[8] = tested on: Matricaria inodora (MATIN); test: Herbicidal pre-emergence action, section C (Table C6); conditions: application rate 320 g/ha, visual grading after ca. 3 weeks; for pest or weed control at 320 g/ha: Tripleurospermum inodorum, pre-emergence, 504 h, read-out: pre-emergence activity against MATIN in %
From the text: as §3

[9] = tested on: Poa annua (POAAN); test: Herbicidal post-emergence action, section B (Table B7); conditions: visual rating about 3 weeks after treatment vs untreated controls
In short: as §1

[10] = tested on: Glycine max (GLXMA); test: Post-emergence effects on crop plants, section F (Table F4); conditions: crop plant damage, application rate 80 g/ha
In short: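 Sandy loam, greenhouse, controlled conditions. Spray at single-leaf stage (2–3 wk post-sowing); WP/EC aqueous suspension/emulsion + 0.5% additive, 600 l water/ha; rate ≤320 g/ha. Visual scoring ca. 3 wk post-spray vs untreated, % effect.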

[11] = tested on: Poa annua (POAAN); test: Herbicidal pre-emergence action, section A (Table A7); conditions: visual grading after ca. 3 weeks vs untreated controls
In short: as §4

| SMILES | pre-emergence activity against ZEAMX in % (crop plant damage) ([2]; application rate 80 g/ha) | pest or weed control at 320 g/ha ([3]; application rate 320 g/ha) | pest or weed control at 320 g/ha [4] | pre-emergence activity against TRZAS in % (crop plant damage) [7] | pest or weed control at 320 g/ha [8] | post-emergence activity against AMARE in % [1] | pre-emergence activity against VERPE in % ([3]; application rate 320 g/ha) | post-emergence activity against GLXMA in % [10] | pre-emergence activity against ABUTH in % [4] | post-emergence activity against SETVI in % [5] | pre-emergence activity against POAAN in % ([11]; application rate 320 g/ha) | pre-emergence activity against LOLRI in % ([6]; application rate 320 g/ha) | pre-emergence activity against MATIN in % [8] | pre-emergence activity against LOLRI in % ([6]; application rate 1280 g/ha) | post-emergence activity against POAAN in % ([9]; application rate 320 g/ha) | pre-emergence activity against VERPE in % ([3]; application rate 80 g/ha) | other results |
| --- | --- | --- | --- | --- | --- | --- | --- | --- | --- | --- | --- | --- | --- | --- | --- | --- | --- |
| CCOCCS(=O)(=O)N1C[S+]([O-])c2cc(C)c(-c3ccccc3F)nc21 (stereo not shown) [Example I-127] | 20% | 90% | 90% | 20% | 90% | – | – | – | – | – | – | – | – | – | – | – | pest or weed control at 320 g/ha ([1]; Amaranthus retroflexus, post-emergence, 504 h, read-out: post-emergence activity against AMARE in %): 90%; pest or weed control at 1280 g/ha ([5]; Setaria viridis, post-emergence, 504 h, read-out: post-emergence activity against SETVI in %): 90%; pest or weed control at 320 g/ha ([6]; Lolium rigidum, pre-emergence, 504 h, application rate 320 g/ha, read-out: pre-emergence activity against LOLRI in %): 100%; pest or weed control at 320 g/ha ([9]; Poa annua, post-emergence, 504 h, application rate 320 g/ha, read-out: post-emergence activity against POAAN in %): 90% |
| Cc1cc2c(nc1-c1ccccc1Cl)NCS2 [Example I-049, 5-(2-chlorophenyl)-6-methyl-2,3-dihydro[1,3]thiazolo[4,5-b]pyridine] | 10% | 80% | 80% | 20% | 80% | – | – | – | – | – | – | – | – | – | – | – | – |
| COC(=O)CCC(=O)N1CSc2cc(C)c(-c3ccccc3F)nc21 [Example I-010] | – | – | – | – | – | 90% | 90% | 0% | 80% | 90% | 100% | 100% | 90% | – | – | – | post-emergence activity against POAAN in % ([9]; application rate 1280 g/ha): 90% |
| CC1(C(=O)N2CSc3cc(Br)c(-c4ccccc4)nc32)CC(Cl)=NO1 (stereo not shown) [Example I-139] | – | – | – | – | – | 90% | 80% | 20% | 90% | 90% | 100% | – | 80% | 100% | 90% | – | pre-emergence activity against ZEAMX in % (crop plant damage) ([2]; application rate 320 g/ha): 20% |
| Cc1ccccc1-c1nc2c(cc1C)SCN2C(=O)C1(C)CC(Cl)=NO1 (stereo not shown) [Example I-137] | 20% | – | – | 0% | – | 90% | – | – | 90% | 90% | 100% | – | 90% | 100% | 90% | 80% | – |
| Cc1cc2c(nc1-c1ccccc1F)N(C(=O)C1(C)CC(Cl)=NO1)CS2 (stereo not shown) [Example I-083] | 10% | – | – | – | – | 90% | – | – | 90% | 90% | – | 100% | 90% | – | 90% | 80% | pre-emergence activity against POAAN in % ([11]; application rate 1280 g/ha): 100% |
